Earlier results as cited in US11066384B2, “Crystalline forms of ARN-509, preparation method and use thereof” (Crystal Pharmaceutical (Suzhou) Co., Ltd., priority 2018, dated 2021).

Assays:
[1] = low solubility and high permeability; cited from earlier work
prostate cancer = conditions: clinical trials; cited from earlier work

| Structure (SMILES) | BCS class [1] | Share of patients in whom the drug is effective (prostate cancer) |
| --- | --- | --- |
| CNC(=O)c1ccc(N2C(=S)N(c3cnc(C#N)c(C(F)(F)F)c3)C(=O)C23CCC3)cc1F [ARN-509, 4-[7-(6-cyano-5-trifluoromethylpyridin-3-yl)-8-oxo-6-thioxo-5,7-diazaspiro[3.4]oct-5-yl]-2-fluoro-N-methylbenzamide] | BCS II | – |
| CNC(=O)c1ccc(N2C(=S)N(c3ccc(C#N)c(C(F)(F)F)c3)C(=O)C2(C)C)cc1F [Enzalutamide] | – | about 70% |
